“Also recorded” adds a separate entry of the source. Structures can show the parent of a compound that is named as a salt.
Assays:
mice [1] = experiment: interaction with barbital; format: in vivo, mouse; details: i.p.
Method: Half an hour after the administration of CRL 41 224, groups of 10 mice receive an intraperitoneal injection of barbital (220 mg/kg).

mice [2] = experiment: action on the behavioral despair; format: in vivo, mouse; details: i.p.
Excerpt: Half an hour after they have received CRL 41 224, groups of 6 mice are placed in a beaker filled with water to a height of 6 cm. The total period of immobility between the 2nd and 6th minutes following immersion is noted.

mice [3] = experiment: interaction with reserpine; format: in vivo, mouse; details: i.p.
Method: Four hours after the intraperitoneal injection of 2.5 mg/kg of reserpine, groups of 6 mice receive CRL 41 224.

rats [4] = experiment: overall behavior and reactivities in rats; format: in vivo, rat; details: i.p.
Method: (§1) Groups of three animals are observed before and then 0.25 hour, 0.50 hour, 1 hour, 2 hours, 3 hours and 24 hours after the administration of CRL 41 224.

mice [5] = experiment: interaction with apomorphine in mice; format: in vivo, mouse
Method: Groups of 6 mice receive CRL 41 224 0.5 hour before the subcutaneous injection of 1 or 16 mg/kg of apomorphine.

[6] = system: peripheral α-adrenergic stimulation; experiment: signs of peripheral adrenergic stimulation; format: in vivo, mouse; rat; details: i.p., dose not stated
Method: as §1

rats [7] = experiment: interaction with amphetamine; format: in vivo, rat; details: rats, i.p.
Method: Amphetamine (2 mg/kg) is injected intraperitoneally into groups of 6 rats 30 minutes after the administration of CRL 41 224.

mice [8] = experiment: motility reduced by habituation to the enclosure; format: in vivo, mouse; details: i.p.
Method: After they have stayed in the actimeters for 18 hours, the mice (6 per dose, 12 control animals) receive CRL 41 224. They are immediately returned to their respective enclosures and, half an hour later, their motility is recorded for 30 minutes.

mice [9] = experiment: motility reduced by hypoxic aggression; format: in vivo, mouse
Method: Half an hour after they have received CRL 41 224, the mice (10 per dose, 20 control animals) are subjected to acute hypobaric anoxia [pressure reduction of 600 mm Hg (i.e. about 8×10^4 Pa) in 90 seconds; release of vacuum in 45 seconds] and are then placed in an actimeter, where their motility is recorded for 10 minutes.

mice [10] = experiment: asphyxiant anoxia (gallamine triiodoethylate); format: in vivo, mouse; details: mice, i.p.; gallamine triiodoethylate 32 mg/kg i.p.
Method: Groups of 10 mice receive CRL 41 224 half an hour before the intraperitoneal administration of 32 mg/kg of gallamine triiodoethylate (reference curarizing agent).

CNS = experiment: overall neuropsychopharmacological (CNS) profile; format: in vivo, mouse; rat; details: i.p., mice and rats, dose not stated
Method: The neuropsychopharmacological study of CRL 41 219 was carried out as indicated above for CRL 41 224.
The neuropsychopharmacological study of CRL 41 220 was carried out in accordance with the procedures given above for CRL 41 224.

mice [11] = experiment: interaction with oxotremorine; format: in vivo, mouse
Method: CRL 41 224 is administered to groups of 6 mice 0.5 hour before the intraperitoneal injection of 0.5 mg/kg of oxotremorine.

mice [12] = experiment: action on the spontaneous motility (actimeter); format: in vivo, mouse; details: mice, i.p.
Method: 0.5 hour after they have received CRL 41 224, the mice (6 per dose, 12 control animals) are placed in an actimeter, where their motility is recorded for 30 minutes.

mice [13] = experiment: action on the intergroup aggression; format: in vivo, mouse; details: i.p.
Method: After they have stayed for 3 weeks in the 2 halves of a cage divided by an opaque partition, groups of 3 mice receive CRL 41 224. Half an hour later, the two groups from the same cage are brought together by removal of the partition, and the number of fights which occur in 10 minutes is noted. Half the test is performed on ordinary mice (NMRI, C.E.R. January) and half on NMRI (Iffa Credo) mice.

rats [14] = experiment: interaction with apomorphine in rats; format: in vivo, rat; details: i.p.
Method: CRL 41 224 is administered to groups of 6 rats 0.5 hour before the subcutaneous injection of 0.5 mg/kg of apomorphine.

mice [15] = experiment: four plate test, traction and electric shock; format: in vivo, mouse; details: i.p.
Method: The test is performed on groups of 10 mice 30 minutes after the administration of CRL 41 224.

mice [16] = experiment: overall behavior and reactivities in mice; format: in vivo, mouse; details: mice, i.p.
Method: as §1

male mice = experiment: acute toxicity, intraperitoneal (lethal doses); format: in vivo, mouse; details: i.p.
Method: By intraperitoneal administration to male mice, the LD-30 (lethal dose for 30% of the animals tested) is of the order of 128 mg/kg and the LD-50 is of the order of about 200 mg/kg.

[17] = mice, i.p., 8, 32 and 128 mg/kg, apomorphine 1 or 16 mg/kg s.c.

## CCNC(C)C(=O)c1ccc(NC(C)=O)cc1 (stereo not shown) [CRL 41 224, 1-(4-acetylaminophenyl)-2-ethylaminopropanone hydrochloride]
Mice [1]; mice, 32 mg/kg
  antagonism of the sleep induced by barbital: total antagonism
Mice [1]; mice, as from 2 mg/kg, barbital 220 mg/kg i.p.
  duration of the sleep induced by barbital: reduces the duration of the sleep induced by barbital
Mice [2]; 8 and especially 32, 128 mg/kg
  period of immobility (forcibly immersed mice): reduces the period of immobility
Mice [3]; mice, 128 mg/kg
  ptosis induced by reserpine: reduces the intensity of the ptosis induced by reserpine
Mice [3]; mice, 32 and 128 mg/kg
  significance of the antagonism of hypothermia induced by reserpine: significant
Mice [3]; mice, as from 2 mg/kg, reserpine 2.5 mg/kg i.p.
  hypothermia induced by reserpine: opposes the hypothermia induced by reserpine
Rats [4]; 1 mg/kg
  mydriasis: brief mydriasis
  mydriasis, time of appearance after administration: 0.5 h
Rats [4]; 4 mg/kg
  mydriasis, duration: 2 h
Rats [4]; 16 mg/kg
  mydriasis, duration: 3 h
  stereotypies, duration: 3 h
Rats [4]; 64 mg/kg
  excitation, duration: 1 h
  hyperthermia, duration: 3 h
  hyperthermia, temperature change: +1.5 °C
  increase in the reactivity to touch and muscular tonus, duration: 3 h
  mydriasis, duration: 3 h
  piloerection, duration: 1 h
  stereotypies, duration: 3 h
Mice [5]; [17]
  hypothermia induced by apomorphine: opposes the hypothermia induced by apomorphine
  righting behavior and stereotypy behavior (apomorphine): without modifying the righting behavior and stereotypy behavior
[6]
  peripheral adrenergic stimulation, overall: peripheral α-adrenergic stimulant effects
Rats [7]; 16 and especially 64 mg/kg, amphetamine 2 mg/kg i.p.
  stereotypies induced by amphetamine: potentiation of the stereotypies induced by amphetamine
Mice [8]; 32 and 128 mg/kg
  motor activity of mice accustomed to their enclosure: distinct resumption in the motor activity
Mice [9]; i.p., 8, 32 and especially 128 mg/kg
  motor recovery after acute hypobaric anoxia: distinct improvement in the motor recovery
Mice [10]
  time taken for convulsions and death to occur following asphyxiant anoxia: does not change the time taken for convulsions and death to occur
CNS; hydrochloride
  overall action on the CNS: antidepressant effects; also recorded: stimulant effects; also recorded: behaves as an antidepressant for the CNS
Mice [11]; mice, i.p.
  signs of peripheral cholinergic stimulation induced by oxotremorine: does not modify the signs of peripheral cholinergic stimulation
Mice [11]; mice, i.p., 2, 8 and especially 32, 128 mg/kg, oxotremorine 0.5 mg/kg i.p.
  hypothermic action of oxotremorine: opposes the hypothermic action of oxotremorine
Mice [11]; mice, i.p., 8, 32 and especially 128 mg/kg
  trembling induced by oxotremorine: distinctly reduces the intensity of the trembling induced by oxotremorine
Mice [12]; 8 and especially 32, 128 mg/kg
  spontaneous motor activity: increases the spontaneous motor activity
Mice [13]; 128 mg/kg
  number of fights: reduces the number of fights
Rats [14]; 16 and especially 64 mg/kg, apomorphine 0.5 mg/kg s.c.
  stereotypies induced by apomorphine: potentiation of the stereotypies induced by apomorphine
Mice [15]; mice, 128 mg/kg
  convulsant effects of electric shock: does not aggravate the convulsant effects
  lethal effects of electric shock: does not modify the lethal effects of electric shock
  motor incapacity (traction): does not cause major motor incapacity
  number of punished passes (four plate test): increase in the number of punished passes
Mice [16]; 32 mg/kg
  excitation, duration: 3 h
Mice [16]; 128 mg/kg
  excitation, duration: 3 h
  hyperthermia, temperature change: +0.9 °C
  increase in the reactivity to touch and muscular tonus, duration: 24 h
  moderate mydriasis, duration: 3 h
Mice [16]; 2 and 8 mg/kg
  forms of behavior, reactivities and variations in pupil diameter and rectal temperature: substantially comparable to those of the control group

## CC(=O)Nc1ccc(C(=O)C(C)NC2CC2)cc1 (stereo not shown) [CRL 41 245]
Mice [1]; dose not stated
  sleep induced by barbital: reduction in the duration of the sleep induced by barbital
Mice [2]; dose not stated
  period of immobility or "despair": reduction in the period of immobility
Mice [3]; dose not stated
  hypothermia induced by reserpine: antagonism of the hypothermia induced by apomorphine, reserpine
  ptosis induced by reserpine: reduction in the ptosis induced by reserpine
Rats [4]; dose not stated
  excitation in rats: excitation with hyperreactivity in mice and rats
  stereotype movements in rats: presence of stereotype movements in mice and rats
Mice [5]; i.p., dose not stated
  hypothermia induced by apomorphine: antagonism of the hypothermia induced by apomorphine
[6]
  mydriasis: mydriasis in rats
  peripheral adrenergic stimulation, overall: peripheral α-adrenergic stimulation
[6]; mice and rats
  piloerection: piloerection in mice and rats
Rats [7]; dose not stated
  stereotypies induced by amphetamine: potentiation of the stereotypies induced by apomorphine and amphetamine
Mice [8]; dose not stated
  motor activity after habituation to the enclosure: resumption in the motor activity of mice accustomed to their enclosure
Mice [9]; i.p., dose not stated
  motor recovery after hypoxic aggression: improvement in the motor recovery in mice subjected to acute hypoxia
CNS
  overall action on the CNS: behaves as an antidepressant with a strong stimulant component
Mice [11]; i.p., strong dose
  trembling due to oxotremorine: a reduction, at a strong dose, in the intensity of the trembling due to oxotremorine
Mice [11]; i.p., dose not stated
  hypothermia induced by oxotremorine: antagonism of the hypothermia induced by apomorphine, reserpine and oxotremorine
Male mice
  LD-0 (maximum non-lethal dose): greater than 256 mg/kg
  LD-100: less than or equal to 512 mg/kg
Mice [12]; dose not stated
  spontaneous motility / motor activity: increase in the spontaneous motor activity
Mice [13]; dose not stated
  intergroup aggression: a reduction in the intergroup aggression
Rats [14]; dose not stated
  stereotypies induced by apomorphine: potentiation of the stereotypies induced by apomorphine
Mice [15]; strong/high dose
  convulsant effects of electric shock: total antagonism
Mice [15]; mice, dose not stated
  number of punished passes in the 4 plate test: increase in the number of punished passes
Mice [16]; dose not stated
  excitation in mice: excitation with hyperreactivity in mice
  stereotype movements in mice: presence of stereotype movements in mice

— patent US4963570A, “1-(acetylaminophenyl)-2-aminopropanone derivatives and pharmaceutical compositions thereof” (Laboratoire L. Lafon, priority 1983, dated 1990)
